Among the test systems are KM20L2 colon; M19-MEL melanoma; XF 498 CNS; LXFL 529 NSCLC; HOP-18 NSCLC; RXF-631 renal; DMS 114 small cell lung; SNB-78 CNS; MDA-N.
What all share (experiment): DTP human tumour cell line panel, 48 h

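Method: 48-hour compound exposure of cells in 96-well plates, five concentrations, linear interpolation of endpoints. Here, GI50 denotes the concentration required for 50% inhibition of growth. The concentration for full growth arrest is given as TGI.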 Some results are limits rather than exact numbers.

Regarding `Cn1nc(-c2ccccc2)c2c(/C=C/c3ccc(Cl)cc3)onc2c1=O`, the TGI in the test on KM20L2 colon is 69.5 µM; in the test with M19-MEL melanoma it was above 100 µM; in the test with XF 498 CNS, 43.6 µM; in the test on LXFL 529 NSCLC, above 100 µM; with HOP-18 NSCLC, 26.8 µM; in the test on RXF-631 renal, above 100 µM. In the test on DMS 114 small cell lung, this compound registered a concentration for total growth inhibition (TGI) above 100 µM.
Turning to `COC(=O)C(=NNc1ccccc1[N+](=O)[O-])C(=O)OC`, the TGI with KM20L2 colon, with M19-MEL melanoma, in the test with XF 498 CNS, in the test on LXFL 529 NSCLC and with HOP-18 NSCLC was above 100 µM each time.
Turning to `CC12CCCC(C#N)(C1)OC2=O` (centres undefined), the TGI in the test on KM20L2 colon, in the test on M19-MEL melanoma, in the test on SNB-78 CNS, with XF 498 CNS, in the test with LXFL 529 NSCLC and in the test with RXF-631 renal was above 100 µM throughout.
As for `CCc1cccc(C)c1N1C(=O)C(=O)C(c2nc3ccccc3o2)/C(=N/NC(=S)NN)C1=O` (centres undefined), the TGI in the test on KM20L2 colon, with M19-MEL melanoma, in the test on SNB-78 CNS, in the test on XF 498 CNS, with LXFL 529 NSCLC and in the test on RXF-631 renal was above 100 µM in each case. The compound further showed a TGI with DMS 114 small cell lung above 100 µM.
For `O=C(CN(Cc1ccccc1)Cc1ccccc1)N1CCc2c([nH]c3ccccc23)C1c1cccnc1` (centres undefined), the TGI was 25.5 µM in the test with KM20L2 colon; 31.4 µM in the test with M19-MEL melanoma; above 100 µM in the test on SNB-78 CNS; 65.8 µM in the test on XF 498 CNS; above 100 µM in the test on LXFL 529 NSCLC; above 100 µM in the test on HOP-18 NSCLC. The same compound showed a TGI in the test with DMS 114 small cell lung of 72.8 µM.
Regarding `O=C[C@]12CC=C3OC4OC5(CCCCC5)OC4[C@H]3[C@H]1C(=O)C=CC2=O` (some centres undefined), the TGI in the test with M19-MEL melanoma was 54.5 µM; in the test with SNB-78 CNS, 29.4 µM; in the test with XF 498 CNS it was 27.8 µM; in the test on LXFL 529 NSCLC, 39.8 µM; in the test on RXF-631 renal it was above 100 µM; with DMS 114 small cell lung, 50.8 µM.
On to `N.N.N.N.N.N#Cc1nn[n-]n1.[Cl-].[Co+3]`, for which the GI50 in the test with KM20L2 colon, in the test on SNB-78 CNS, with LXFL 529 NSCLC and in the test with HOP-18 NSCLC was above 100 µM each time. In addition, the TGI with KM20L2 colon, in the test on SNB-78 CNS, with LXFL 529 NSCLC and in the test on HOP-18 NSCLC was above 100 µM each time.
With `C/C=C(\C)c1cc(=O)c2c(C)cc3c(c2o1)C(OC)(OC(C)=O)c1c(O)c(C2CC(C)(N(C)C)C(OC(C)=O)C(C)O2)cc(C2CC(N(C)C)C(OC(C)=O)C(C)O2)c1C3=O` (centres undefined), the TGI in the test with MDA-N was determined as 4.71 µM.
For `CC[O-].CC[O-].COc1ccc(C(=O)[CH-]C(C)=O)cc1OC.COc1ccc(C(=O)[CH-]C(C)=O)cc1OC.[Ti+4]`, the GI50 in the test on KM20L2 colon is 53.1 µM; in the test on SNB-78 CNS, 72.2 µM; in the test with LXFL 529 NSCLC it was 38.7 µM; in the test with HOP-18 NSCLC it was 29.8 µM; with RXF-631 renal it was 49.4 µM; in the test on DMS 114 small cell lung it was above 100 µM. For the same compound, the TGI with KM20L2 colon, in the test with SNB-78 CNS, with LXFL 529 NSCLC, in the test with HOP-18 NSCLC, with RXF-631 renal and with DMS 114 small cell lung was above 100 µM each time.
In the case of `O=CC1CCC=CC1NC(=O)OCc1ccccc1` (centres undefined), the TGI with M19-MEL melanoma was above 100 µM; in the test on SNB-78 CNS it was above 100 µM; with XF 498 CNS, above 100 µM; with LXFL 529 NSCLC, above 100 µM; with HOP-18 NSCLC it was above 100 µM; in the test with DMS 114 small cell lung it was 53.6 µM.
Consider `NC(CP(=O)(O)O)C(=O)O` (centres undefined), for which the TGI in the test on MDA-N was above 100 µM.
Turning to `Cc1ccc2nc(Sc3c([N+](=O)[O-])ncn3C)[nH]c2c1`, the concentration for total growth inhibition (TGI) with KM20L2 colon is above 100 µM; in the test on M19-MEL melanoma, 57.2 µM; with SNB-78 CNS, 76.3 µM; in the test with XF 498 CNS, 18.9 µM; in the test on HOP-18 NSCLC it was above 100 µM; with RXF-631 renal, 32.3 µM. For the same compound, the TGI in the test on DMS 114 small cell lung amounted to 28.9 µM.
Take `N#CC(C#N)=Cc1ccc(C(O)P(=O)(O)O)cc1` (centres undefined): the TGI with KM20L2 colon, in the test with M19-MEL melanoma, in the test on SNB-78 CNS, in the test with XF 498 CNS, in the test with LXFL 529 NSCLC and in the test with HOP-18 NSCLC was above 100 µM in each case. Further, the TGI with RXF-631 renal and in the test on DMS 114 small cell lung was above 100 µM each time.
With `CCOC(=O)C1=C(C)NC(C)=C(C(=O)OCCNC(=O)c2ccc(N=[N+]=[N-])cc2)C1c1ccccc1C(F)(F)F` (centres undefined), in the test with MDA-N, the TGI was 21.5 µM.
For the compound `O=C1c2cccc([N+](=O)[O-])c2C(=O)c2nccnc21`, the TGI in the test with KM20L2 colon amounted to 6.16 µM; with M19-MEL melanoma it was 0.276 µM; with SNB-78 CNS it was 7.38 µM; in the test on HOP-18 NSCLC, 3.06 µM; in the test on DMS 114 small cell lung, 2.3 µM.
Regarding `COC(=O)C(=O)C(C#N)c1cccc(Cl)c1` (centres undefined), the TGI with KM20L2 colon, in the test on M19-MEL melanoma, in the test on SNB-78 CNS, in the test on XF 498 CNS, with LXFL 529 NSCLC and with HOP-18 NSCLC was above 100 µM in each case.
Turning to `CC12CC/C(=N/NC(N)=O)C3C1CCCC32`, the TGI in the test on KM20L2 colon, with M19-MEL melanoma, in the test with LXFL 529 NSCLC, in the test with HOP-18 NSCLC, in the test on RXF-631 renal and with DMS 114 small cell lung was above 100 µM each time.

Values taken from PubChem BioAssay (NCI).
